Results: ChEMBL document CHEMBL3813602, “Disseminins and Spiciferone Analogues: Polyketide-Derived Metabolites from a Fungicolous Isolate of Pestalotiopsis disseminata” (J Nat Prod, 2016)
The source made the active and inactive calls.

Legend:
Assay type in all cases: functional, organism-based
Bacillus subtilis [1] = test: Antimicrobial activity against Bacillus subtilis at 50 ug/disk after 24 hrs by disk diffusion method
Escherichia coli [2] = test: Antimicrobial activity against Escherichia coli at 50 ug/disk after 24 hrs by disk diffusion method
Staphylococcus aureus [3] = test: Antimicrobial activity against Staphylococcus aureus at 50 ug/disk after 24 hrs by disk diffusion method
Candida albicans [4] = test: Antimicrobial activity against Candida albicans at 50 ug/disk after 48 hrs by disk diffusion method
Candida albicans [5] = test: Antimicrobial activity against Candida albicans at 100 ug/disk after 48 hrs by disk diffusion method
Staphylococcus aureus [6] = test: Antimicrobial activity against Staphylococcus aureus at 100 ug/disk after 24 hrs by disk diffusion method
Bacillus subtilis [7] = test: Antimicrobial activity against Bacillus subtilis at 100 ug/disk after 24 hrs by disk diffusion method
Escherichia coli [8] = test: Antimicrobial activity against Escherichia coli at 100 ug/disk after 24 hrs by disk diffusion method
Aspergillus flavus = test: Antimicrobial activity against Aspergillus flavus at 100 ug/disk after 48 hrs by disk diffusion method
Fusarium verticillioides = test: Antimicrobial activity against Fusarium verticillioides at 100 ug/disk after 48 hrs by disk diffusion method

Measured: Activity

CC[C@@](C)(C(=O)CCO)C1=CC(=O)[C@@H](C)[C@H](C)O1
inactive: Bacillus subtilis [1] | Escherichia coli [2] | Staphylococcus aureus [3] | Candida albicans [4]

CCC(C)C(=O)[C@@H]1CO[C@@H](C)[C@@H](C)[C@H]1CO (mixture of isomers)
inactive: Candida albicans [5] | Staphylococcus aureus [6] | Bacillus subtilis [7] | Escherichia coli [8] | Aspergillus flavus | Fusarium verticillioides

CC[C@H](C)C(=O)[C@H]1[C@H](CO)[C@H](C)[C@H](C)O[C@@H]1O
inactive: Candida albicans [5] | Staphylococcus aureus [6] | Bacillus subtilis [7] | Escherichia coli [8] | Aspergillus flavus | Fusarium verticillioides

C[C@H]1[C@H]2[C@H](OC[C@@H]2C(=O)[C@@H](C)[C@@H](C)O)O[C@H]1C
inactive: Candida albicans [5] | Staphylococcus aureus [6] | Bacillus subtilis [7] | Escherichia coli [8] | Aspergillus flavus | Fusarium verticillioides

C[C@H](C(=O)[C@H]1CO[C@@]2(C)OC[C@@H]1[C@@H]2C)[C@@H](C)O
inactive: Candida albicans [5] | Staphylococcus aureus [6] | Bacillus subtilis [7] | Escherichia coli [8] | Aspergillus flavus | Fusarium verticillioides

CC[C@@](C)(C(=O)CCO)C1=CC(=O)[C@H](C)[C@H](C)O1
inactive: Bacillus subtilis [1] | Escherichia coli [2] | Staphylococcus aureus [3] | Candida albicans [4]
